Where two headings read alike, the source gives them in different places.
Columns and labels:
M. luteus ATCC9341 = assay: Sensitivity test (agar dilution); type: cell-based, Micrococcus luteus; settings: Micrococcus luteus
Experimental: (§1) The antibacterial activities were tested against various 18 bacteria (27 standard strains) which are representative bacteria caused clinically infectious disease (Staphylococcus aureus 3 strains, Staphylococcus epidermidis 1 strain, Micrococcus luteus 1 strain, Streptococcus pyogenes 1 strain, Enterococcus faecalis 1 strain, Enterococcus faecium 1 strain, Bacillus subtilis 1 strain, Escherichia coli 3 strains, Klebsiella pneumoniae 1 strain, Proteus mirabilis 1 strain, Proteus vulgaris 2 strains, Pseudomonas aeruginosa 3 strains, Serratia marcescens 2 strains, Enterobacter aerogenes 1 strain, Stenotrophomonas maltophilia 1 strain, Enterobacter cloacae 1 strain, Citrobacter freundii 1 strain, Moraxella catarrhalis 2 strains).
(§2) According to the standard method of Japan Chemotherapeutic Society (Chemotherapy, vol. […], p 76-79 (1981)) the test was carried out using the agar dilution method. After dissolving test samples in distilled water, agar medium containing the test samples was prepared in such a manner that the final concentration became twice serial dilution by pouring serially diluted combination drug solution or a single drug solution into agar medium. As agar medium was used Mueller Hinton Agar medium (MHA). Then, each strain was cultivated over night at 37° C. in an incubator and suspended in buffered saline solution with gelatin (BSG) in the concentration of about 10^6 CFU/ml. The suspension (about 5 μl) containing test strains was inoculated to the medium containing the test samples by Micro Planter.
(§3) When the sample is subjected to sensitivity test, this mixed solution was diluted by twice serial dilution method.
(§4) Furthermore, when the drug is solely used, each test sample was used as it is, and diluted by twice serial dilution method from the maximum concentration to the minimum concentration.
(§5) FIC index based on MIC value was calculated. […] Namely, when FIC index calculated by the following formula is equal or less than 1, the enhanced effect of the combination drug in said ratio is considered as positive. When FIC index is over 1, the enhanced effect of the combination drug in said ratio is considered as negative.
(§6) Formula of FIC index: FIC index=(MIC of Drug A in combination/MIC of Drug A alone)+(MIC of Drug B in combination/MIC of Drug B alone) N.C. in tables means being not calculated.

B. cepacia 14430 = assay: Sensitivity test (agar dilution), clinical isolate; type: cell-based, Burkholderia cepacia
Experimental: (§7) In addition, the antibacterial activities were tested against strains which are comparatively less sensitive to β-lactam compounds, namely clinically isolated 13 strains of Acinetobacter calcoaceticus and Acinetobacter lwoffi, clinically isolated 11 strains of Serratia marcescens, clinically isolated 12 strains of Burkholderia cepacia, and clinically isolated 15 strains of Pseudomonas aeruginosa.
as §2
(§8) Each drug was weighed, and dissolved in distilled water to give a test sample. When the drugs are used in combination, two kinds of solution containing each drug were mixed so as to be various ratio of concentration to give a mixed solution. When the sample is subjected to sensitivity test, this mixed solution was diluted by twice serial dilution method.
as §4

B. cepacia 7438 = assay: Sensitivity test (agar dilution), clinical isolate; type: cell-based, Burkholderia cepacia
Experimental: as §7, §2, §8, §4

B. cepacia 14607 = assay: Sensitivity test (agar dilution), clinical isolate; type: cell-based, Burkholderia cepacia
Experimental: as §7, §2, §8, §4

B. cepacia 14428 = assay: Sensitivity test (agar dilution), clinical isolate; type: cell-based, Burkholderia cepacia
Experimental: as §7, §2, §8, §4

B. cepacia 7247 = assay: Sensitivity test (agar dilution), clinical isolate; type: cell-based, Burkholderia cepacia
Experimental: as §7, §2, §8, §4

B. cepacia 1892324 = assay: Sensitivity test (agar dilution), clinical isolate; type: cell-based, Burkholderia cepacia
Experimental: as §7, §2, §8, §4

B. cepacia 14300 = assay: Sensitivity test (agar dilution), clinical isolate; type: cell-based, Burkholderia cepacia
Experimental: as §7, §2, §8, §4

B. cepacia 1993527 = assay: Sensitivity test (agar dilution), clinical isolate; type: cell-based, Burkholderia cepacia
Experimental: as §7, §2, §8, §4

B. cepacia 14429 = assay: Sensitivity test (agar dilution), clinical isolate; type: cell-based, Burkholderia cepacia
Experimental: as §7, §2, §8, §4

B. cepacia 3138 = assay: Sensitivity test (agar dilution), clinical isolate; type: cell-based, Burkholderia cepacia
Experimental: as §7, §2, §8, §4

B. cepacia 257-1 = assay: Sensitivity test (agar dilution), clinical isolate; type: cell-based, Burkholderia cepacia
Experimental: as §7, §2, §8, §4

[1] = test system: 18 bacteria (27 standard strains); assay: Sensitivity test, combination effect over the standard strains; type: cell-based; settings: in combination with compound 1, standard strains
Experimental: as §1, §2, §3, §5, §6

[2] = ATCC9341, Concomitant (BIPM:SM = 1:1), M. luteus ATCC9341, read-out: MIC concomitant
[3] = ATCC9341, drug alone, M. luteus ATCC9341, read-out: MIC alone

Structure (SMILES): C[C@H]1C=C(c2csc(SC3=C(C(=O)O)N4C(=O)[C@H]([C@@H](C)O)[C@H]4[C@H]3C)n2)CN1 [SM, (4R,5S,6S)-6-[(1R)-1-Hydroxyethyl]-4-methyl-3-({4-[(5S)-5-methyl-2,5-dihydro-1H-pyrrol-3-yl]-1,3-thiazol-2-yl}sulfanyl)-7-oxo-1-azabicyclo[3.2.0]hept-2-ene-2-carboxylic acid]
- MIC (M. luteus ATCC9341; ATCC9341, Concomitant (AZT:SM = 1:1), M. luteus ATCC9341, read-out: MIC concomitant): ≤ 0.002 µg/mL
- MIC (M. luteus ATCC9341; [2]): 0.004 µg/mL
- MIC (M. luteus ATCC9341; ATCC9341, Concomitant (CAZ:SM = 1:1), M. luteus ATCC9341, read-out: MIC concomitant): ≤ 0.002 µg/mL
- MIC (M. luteus ATCC9341; ATCC9341, Concomitant (CPFX:SM = 1:1), M. luteus ATCC9341, read-out: MIC concomitant): 0.004 µg/mL
- MIC (M. luteus ATCC9341; ATCC9341, Concomitant (DRPM:SM = 1:1), M. luteus ATCC9341, read-out: MIC concomitant): ≤ 0.002 µg/mL
- MIC (M. luteus ATCC9341; ATCC9341, Concomitant (IPM:SM = 1:1), read-out: MIC): 0.004 µg/mL
- MIC (M. luteus ATCC9341; ATCC9341, Concomitant (MEPM:SM = 1:1), read-out: MIC): ≤ 0.016 µg/mL
- MIC (M. luteus ATCC9341; ATCC9341, Concomitant (MEPM:SM = 1:2), read-out: MIC): ≤ 0.031 µg/mL
- MIC (M. luteus ATCC9341; ATCC9341, Concomitant (MEPM:SM = 1:4), read-out: MIC): ≤ 0.063 µg/mL
- MIC (M. luteus ATCC9341; ATCC9341, Concomitant (PAPM:SM = 1:1), M. luteus ATCC9341, read-out: MIC concomitant): ≤ 0.002 µg/mL
- MIC (M. luteus ATCC9341; ATCC9341, Concomitant (PIPC:SM = 1:1), M. luteus ATCC9341, read-out: MIC concomitant): ≤ 0.002 µg/mL
- MIC (M. luteus ATCC9341; ATCC9341, Concomitant drug (MEPM:SM = 2:1), read-out: MIC): ≤ 0.008 µg/mL
- MIC (M. luteus ATCC9341; ATCC9341, alone, read-out: MIC): ≤ 0.008 µg/mL
- MIC (M. luteus ATCC9341; [3]): 0.004 µg/mL
- MIC (B. cepacia 14430; Burkholderia cepacia, 14430, Concomitant (ME:SM = 1:1)): 1 µg/mL
- MIC (B. cepacia 14430; Burkholderia cepacia, 14430, Concomitant (ME:SM = 1:2)): 2 µg/mL
- MIC (B. cepacia 14430; Burkholderia cepacia, 14430, Concomitant (ME:SM = 1:4)): 8 µg/mL
- MIC (B. cepacia 14430; Burkholderia cepacia, 14430, Concomitant (ME:SM = 2:1)): 1 µg/mL
- MIC (B. cepacia 14430; Burkholderia cepacia, 14430, alone): 8 µg/mL
- MIC (B. cepacia 7438; Burkholderia cepacia, 7438, Concomitant (ME:SM = 1:1)): 2 µg/mL
- MIC (B. cepacia 7438; Burkholderia cepacia, 7438, Concomitant (ME:SM = 1:2)): 2 µg/mL
- MIC (B. cepacia 7438; Burkholderia cepacia, 7438, Concomitant (ME:SM = 1:4)): 8 µg/mL
- MIC (B. cepacia 7438; Burkholderia cepacia, 7438, Concomitant (ME:SM = 2:1)): 1 µg/mL
- MIC (B. cepacia 7438; Burkholderia cepacia, 7438, alone): 16 µg/mL
- MIC (B. cepacia 14607; Burkholderia cepacia, 14607, Concomitant (ME:SM = 1:1)): 1 µg/mL
- MIC (B. cepacia 14607; Burkholderia cepacia, 14607, Concomitant (ME:SM = 1:2)): 1 µg/mL
- MIC (B. cepacia 14607; Burkholderia cepacia, 14607, Concomitant (ME:SM = 1:4)): 2 µg/mL
- MIC (B. cepacia 14607; Burkholderia cepacia, 14607, Concomitant (ME:SM = 2:1)): 0.5 µg/mL
- MIC (B. cepacia 14607; Burkholderia cepacia, 14607, alone): 4 µg/mL
- MIC (B. cepacia 14428; Burkholderia cepacia, 14428, Concomitant (ME:SM = 1:1)): 1 µg/mL
- MIC (B. cepacia 14428; Burkholderia cepacia, 14428, Concomitant (ME:SM = 1:2)): 2 µg/mL
- MIC (B. cepacia 14428; Burkholderia cepacia, 14428, Concomitant (ME:SM = 1:4)): 2 µg/mL
- MIC (B. cepacia 14428; Burkholderia cepacia, 14428, Concomitant (ME:SM = 2:1)): 0.5 µg/mL
- MIC (B. cepacia 14428; Burkholderia cepacia, 14428, alone): 8 µg/mL
- MIC (B. cepacia 7247; Burkholderia cepacia, 7247, Concomitant (ME:SM = 1:1)): 2 µg/mL
- MIC (B. cepacia 7247; Burkholderia cepacia, 7247, Concomitant (ME:SM = 1:2)): 4 µg/mL
- MIC (B. cepacia 7247; Burkholderia cepacia, 7247, Concomitant (ME:SM = 1:4)): 8 µg/mL
- MIC (B. cepacia 7247; Burkholderia cepacia, 7247, Concomitant (ME:SM = 2:1)): 1 µg/mL
- MIC (B. cepacia 7247; Burkholderia cepacia, 7247, alone): 16 µg/mL
- MIC (B. cepacia 1892324; Burkholderia cepacia, 1892324, Concomitant (ME:SM = 1:1)): 1 µg/mL
- MIC (B. cepacia 1892324; Burkholderia cepacia, 1892324, Concomitant (ME:SM = 1:2)): 2 µg/mL
- MIC (B. cepacia 1892324; Burkholderia cepacia, 1892324, Concomitant (ME:SM = 1:4)): 2 µg/mL
- MIC (B. cepacia 1892324; Burkholderia cepacia, 1892324, Concomitant (ME:SM = 2:1)): 1 µg/mL
- MIC (B. cepacia 1892324; Burkholderia cepacia, 1892324, alone): 4 µg/mL
- MIC (B. cepacia 14300; Burkholderia cepacia, 14300, Concomitant (ME:SM = 1:1)): 0.5 µg/mL
- MIC (B. cepacia 14300; Burkholderia cepacia, 14300, Concomitant (ME:SM = 1:2)): 1 µg/mL
- MIC (B. cepacia 14300; Burkholderia cepacia, 14300, Concomitant (ME:SM = 1:4)): 1 µg/mL
- MIC (B. cepacia 14300; Burkholderia cepacia, 14300, Concomitant (ME:SM = 2:1)): 0.25 µg/mL
- MIC (B. cepacia 14300; Burkholderia cepacia, 14300, alone): 2 µg/mL
- MIC (B. cepacia 1993527; Burkholderia cepacia, 1993527, Concomitant (ME:SM = 1:1)): 1 µg/mL
- MIC (B. cepacia 1993527; Burkholderia cepacia, 1993527, Concomitant (ME:SM = 1:2)): 2 µg/mL
- MIC (B. cepacia 1993527; Burkholderia cepacia, 1993527, Concomitant (ME:SM = 1:4)): 8 µg/mL
- MIC (B. cepacia 1993527; Burkholderia cepacia, 1993527, Concomitant (ME:SM = 2:1)): 1 µg/mL
- MIC (B. cepacia 1993527; Burkholderia cepacia, 1993527, alone): 8 µg/mL
- MIC (B. cepacia 14429; Burkholderia cepacia, 14429, Concomitant (ME:SM = 1:1)): 1 µg/mL
- MIC (B. cepacia 14429; Burkholderia cepacia, 14429, Concomitant (ME:SM = 1:2)): 1 µg/mL
- MIC (B. cepacia 14429; Burkholderia cepacia, 14429, Concomitant (ME:SM = 1:4)): 2 µg/mL
- MIC (B. cepacia 14429; Burkholderia cepacia, 14429, Concomitant (ME:SM = 2:1)): 0.5 µg/mL
- MIC (B. cepacia 14429; Burkholderia cepacia, 14429, alone): 4 µg/mL
- MIC (B. cepacia 3138; Burkholderia cepacia, 3138, Concomitant (ME:SM = 1:1)): 1 µg/mL
- MIC (B. cepacia 3138; Burkholderia cepacia, 3138, Concomitant (ME:SM = 1:2)): 2 µg/mL
- MIC (B. cepacia 3138; Burkholderia cepacia, 3138, Concomitant (ME:SM = 1:4)): 8 µg/mL
- MIC (B. cepacia 3138; Burkholderia cepacia, 3138, Concomitant (ME:SM = 2:1)): 1 µg/mL
- MIC (B. cepacia 3138; Burkholderia cepacia, 3138, alone): 8 µg/mL
- MIC (B. cepacia 257-1; Burkholderia cepacia, 2571, Concomitant (ME:SM = 1:1)): 0.5 µg/mL
- MIC (B. cepacia 257-1; Burkholderia cepacia, 2571, Concomitant (ME:SM = 1:2)): 0.5 µg/mL
- MIC (B. cepacia 257-1; Burkholderia cepacia, 2571, Concomitant (ME:SM = 1:4)): 1 µg/mL
- MIC (B. cepacia 257-1; Burkholderia cepacia, 2571, Concomitant (ME:SM = 2:1)): 0.25 µg/mL
- MIC (B. cepacia 257-1; Burkholderia cepacia, 2571, alone): 4 µg/mL

Structure (SMILES): C[C@@H](O)[C@H]1C(=O)N2C(C(=O)[O-])=C(SC3Cn4cnc[n+]4C3)[C@H](C)[C@H]12 (stereo partly drawn) [BIPM, biapenem]
- combination effect [1]: the combination effect was recognized
- MIC (M. luteus ATCC9341; [2]): 0.004 µg/mL
- MIC (M. luteus ATCC9341; [3]): 0.125 µg/mL

— patent US20090018111A1, “Novel Antimicrobial Medicament” (priority 2004, published 2009)
